Reference: the supplement of paper PMC10307832

Tests used:
Assay in all cases: relative viability (nuclei count vs DMSO), 5 days (fraction); higher = more cells survive
KN-93 + Pemetrexed = compound: CN(C/C=C/C1=CC=C(C=C1)Cl)CC2=CC=CC=C2N(CCO)S(=O)(=O)C3=CC=C(C=C3)OC [KN-93] + Nc1nc2[nH]cc(CCc3ccc(C(=O)N[C@@H](CCC(=O)O)C(=O)O)cc3)c2c(=O)[nH]1 [Pemetrexed] (partner 0.2 µM)
Outline: (§1)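 Medians of duplicate plates are given as relative viability. That measure is the nuclei count in treated wells divided by the count in vehicle wells. Counts were taken on 4× images of lung cancer cell lines in 1536-well plates, 5 days after pin-tool dosing the day after seeding with one drug alone or a fixed anchor-drug dose plus five library-drug doses (not always all listed) in √10 steps.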

KN-93 + Luminespib = compound: CN(C/C=C/C1=CC=C(C=C1)Cl)CC2=CC=CC=C2N(CCO)S(=O)(=O)C3=CC=C(C=C3)OC [KN-93] + CCNC(=O)c1noc(-c2cc(C(C)C)c(O)cc2O)c1-c1ccc(CN2CCOCC2)cc1 [Luminespib] (partner 0.01 µM)
Outline: as §1

KN-93 + Pictilisib = compound: CN(C/C=C/C1=CC=C(C=C1)Cl)CC2=CC=CC=C2N(CCO)S(=O)(=O)C3=CC=C(C=C3)OC [KN-93] + CS(=O)(=O)N1CCN(Cc2cc3nc(-c4cccc5[nH]ncc45)nc(N4CCOCC4)c3s2)CC1 [Pictilisib] (partner 1 µM)
Outline: as §1

KN-93 + OSI-027 = compound: CN(C/C=C/C1=CC=C(C=C1)Cl)CC2=CC=CC=C2N(CCO)S(=O)(=O)C3=CC=C(C=C3)OC [KN-93] + COc1cccc2cc(-c3nc([C@H]4CC[C@H](C(=O)O)CC4)n4ncnc(N)c34)[nH]c12 [OSI-027] (partner 0.5 µM)
Outline: as §1

KN-93 + Lapatinib = compound: CN(C/C=C/C1=CC=C(C=C1)Cl)CC2=CC=CC=C2N(CCO)S(=O)(=O)C3=CC=C(C=C3)OC [KN-93] + CS(=O)(=O)CCNCc1ccc(-c2ccc3ncnc(Nc4ccc(OCc5cccc(F)c5)c(Cl)c4)c3c2)o1 [Lapatinib] (partner 2 µM)
Outline: as §1

KN-93 + Dasatinib = compound: CN(C/C=C/C1=CC=C(C=C1)Cl)CC2=CC=CC=C2N(CCO)S(=O)(=O)C3=CC=C(C=C3)OC [KN-93] + Cc1nc(Nc2ncc(C(=O)Nc3c(C)cccc3Cl)s2)cc(N2CCN(CCO)CC2)n1 [Dasatinib] (partner 0.075 µM)
Outline: as §1

KN-93 + Foretinib = compound: CN(C/C=C/C1=CC=C(C=C1)Cl)CC2=CC=CC=C2N(CCO)S(=O)(=O)C3=CC=C(C=C3)OC [KN-93] + COc1cc2c(Oc3ccc(NC(=O)C4(C(=O)Nc5ccc(F)cc5)CC4)cc3F)ccnc2cc1OCCCN1CCOCC1 [Foretinib] (partner 0.25 µM)
Outline: as §1

KN-93 + Bortezomib = compound: CN(C/C=C/C1=CC=C(C=C1)Cl)CC2=CC=CC=C2N(CCO)S(=O)(=O)C3=CC=C(C=C3)OC [KN-93] + CC(C)C[C@H](NC(=O)[C@H](Cc1ccccc1)NC(=O)c1cnccn1)B(O)O [Bortezomib] (partner 0.002 µM)
Outline: as §1

KN-93 + Linsitinib = compound: CN(C/C=C/C1=CC=C(C=C1)Cl)CC2=CC=CC=C2N(CCO)S(=O)(=O)C3=CC=C(C=C3)OC [KN-93] + C[C@]1(O)C[C@@H](c2nc(-c3ccc4ccc(-c5ccccc5)nc4c3)c3c(N)nccn32)C1 [Linsitinib] (partner 1 µM)
Outline: as §1

KN-93 + Phenformin = compound: CN(C/C=C/C1=CC=C(C=C1)Cl)CC2=CC=CC=C2N(CCO)S(=O)(=O)C3=CC=C(C=C3)OC [KN-93] + N=C(N)NC(=N)NCCc1ccccc1 [Phenformin] (partner 250 µM)
Outline: as §1

KN-93 + Alpelisib = compound: CN(C/C=C/C1=CC=C(C=C1)Cl)CC2=CC=CC=C2N(CCO)S(=O)(=O)C3=CC=C(C=C3)OC [KN-93] + Cc1nc(NC(=O)N2CCC[C@H]2C(N)=O)sc1-c1ccnc(C(C)(C)C(F)(F)F)c1 [Alpelisib] (partner 2 µM)
Outline: as §1

KN-93 + Crizotinib = compound: CN(C/C=C/C1=CC=C(C=C1)Cl)CC2=CC=CC=C2N(CCO)S(=O)(=O)C3=CC=C(C=C3)OC [KN-93] + C[C@@H](Oc1cc(-c2cnn(C3CCNCC3)c2)cnc1N)c1c(Cl)ccc(F)c1Cl [Crizotinib] (partner 1 µM)
Outline: as §1

KN-93 = compound: CN(C/C=C/C1=CC=C(C=C1)Cl)CC2=CC=CC=C2N(CCO)S(=O)(=O)C3=CC=C(C=C3)OC [KN-93]
Outline: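 Lung cancer cell lines were seeded into 1536-well plates, kept overnight at 37 °C and pinned with five library-drug doses (not always all listed) spaced by √10. After 5 days, nuclei were Hoechst-stained, imaged at 4× and counted with MetaXpress. Viability is treated-well nuclei over vehicle-well nuclei, taken as a median across plates. Plates needed control CV below 25% and at least one doubling.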

KN-93 + Olaparib = compound: CN(C/C=C/C1=CC=C(C=C1)Cl)CC2=CC=CC=C2N(CCO)S(=O)(=O)C3=CC=C(C=C3)OC [KN-93] + O=C(c1cc(Cc2n[nH]c(=O)c3ccccc23)ccc1F)N1CCN(C(=O)C2CC2)CC1 [Olaparib] (partner 8 µM)
Outline: as §1

KN-93 + Navitoclax = compound: CN(C/C=C/C1=CC=C(C=C1)Cl)CC2=CC=CC=C2N(CCO)S(=O)(=O)C3=CC=C(C=C3)OC [KN-93] + CC1(C)CCC(c2ccc(Cl)cc2)=C(CN2CCN(c3ccc(C(=O)NS(=O)(=O)c4ccc(N[C@H](CCN5CCOCC5)CSc5ccccc5)c(S(=O)(=O)C(F)(F)F)c4)cc3)CC2)C1 [Navitoclax] (partner 0.5 µM)
Outline: as §1

NCI-H1563 showed a relative viability (KN-93 + Pemetrexed; first compound 0.08 µM) of 0.759, a relative viability (KN-93 + Pemetrexed; first compound 0.253 µM) of 0.822 and a relative viability (KN-93 + Pemetrexed; first compound 2.53 µM) of 0.799. It also gave a relative viability (KN-93 + Pemetrexed; first compound 8 µM) of 0.597, a relative viability (KN-93 + Luminespib; first compound 0.08 µM) of 0.625 and a relative viability (KN-93 + Luminespib; first compound 0.253 µM) of 0.483. The relative viability (KN-93 + Luminespib; first compound 2.53 µM) was 0.577, the relative viability (KN-93 + Luminespib; first compound 8 µM) was 0.517 and the relative viability (KN-93 + Pictilisib; first compound 0.08 µM) was 0.661. For the same cell line, the relative viability (KN-93 + Pictilisib; first compound 0.253 µM) was 0.618, the relative viability (KN-93 + Pictilisib; first compound 2.53 µM) was 0.648 and the relative viability (KN-93 + Pictilisib; first compound 8 µM) was 0.608. It also gave a relative viability (KN-93 + OSI-027; first compound 0.08 µM) of 0.841, a relative viability (KN-93 + OSI-027; first compound 0.253 µM) of 0.789 and a relative viability (KN-93 + OSI-027; first compound 2.53 µM) of 0.745. For the same cell line, the relative viability (KN-93 + OSI-027; first compound 8 µM) was 0.566, the relative viability (KN-93 + Lapatinib; first compound 0.08 µM) was 0.946 and the relative viability (KN-93 + Lapatinib; first compound 0.253 µM) was 1. The relative viability (KN-93 + Lapatinib; first compound 2.53 µM) was 0.937, the relative viability (KN-93 + Lapatinib; first compound 8 µM) was 0.641 and the relative viability (KN-93 + Dasatinib; first compound 0.08 µM) was 0.473. For the same cell line, the relative viability (KN-93 + Dasatinib; first compound 0.253 µM) was 0.415, the relative viability (KN-93 + Dasatinib; first compound 2.53 µM) was 0.471 and the relative viability (KN-93 + Dasatinib; first compound 8 µM) was 0.377. For the same cell line, the relative viability (KN-93 + Foretinib; first compound 0.08 µM) was 0.918, the relative viability (KN-93 + Foretinib; first compound 0.253 µM) was 0.878 and the relative viability (KN-93 + Foretinib; first compound 2.53 µM) was 0.858. The relative viability (KN-93 + Foretinib; first compound 8 µM) was 0.659, the relative viability (KN-93 + Bortezomib; first compound 0.08 µM) was 1 and the relative viability (KN-93 + Bortezomib; first compound 0.253 µM) was 0.884. It also gave a relative viability (KN-93 + Bortezomib; first compound 2.53 µM) of 0.778, a relative viability (KN-93 + Bortezomib; first compound 8 µM) of 0.675 and a relative viability (KN-93 + Linsitinib; first compound 0.08 µM) of 1.22. The relative viability (KN-93 + Linsitinib; first compound 0.253 µM) was 1.2, the relative viability (KN-93 + Linsitinib; first compound 2.53 µM) was 1.02 and the relative viability (KN-93 + Linsitinib; first compound 8 µM) was 0.934. For the same cell line, the relative viability (KN-93 + Phenformin; first compound 0.08 µM) was 0.706, the relative viability (KN-93 + Phenformin; first compound 0.253 µM) was 0.633 and the relative viability (KN-93 + Phenformin; first compound 2.53 µM) was 0.647. The relative viability (KN-93 + Phenformin; first compound 8 µM) was 0.626, the relative viability (KN-93 + Alpelisib; first compound 0.08 µM) was 0.922 and the relative viability (KN-93 + Alpelisib; first compound 0.253 µM) was 0.947. For the same cell line, the relative viability (KN-93 + Alpelisib; first compound 2.53 µM) was 0.906, the relative viability (KN-93 + Alpelisib; first compound 8 µM) was 0.758 and the relative viability (KN-93 + Crizotinib; first compound 0.08 µM) was 0.875. It also gave a relative viability (KN-93 + Crizotinib; first compound 0.253 µM) of 0.845, a relative viability (KN-93 + Crizotinib; first compound 2.53 µM) of 0.643 and a relative viability (KN-93 + Crizotinib; first compound 8 µM) of 0.601. It also gave a relative viability (KN-93; 0.08 µM) of 0.967, a relative viability (KN-93; 0.253 µM) of 0.936 and a relative viability (KN-93; 2.53 µM) of 0.88. For the same cell line, the relative viability (KN-93; 8 µM) was 0.758.

Work on EBC-1 yielded a relative viability (KN-93 + Pictilisib; first compound 0.253 µM) of 0.317, a relative viability (KN-93 + Pictilisib; first compound 2.53 µM) of 0.343 and a relative viability (KN-93 + Pictilisib; first compound 8 µM) of 0.224. The relative viability (KN-93 + Lapatinib; first compound 2.53 µM) was 0.183, the relative viability (KN-93 + Lapatinib; first compound 8 µM) was 0.233 and the relative viability (KN-93 + Foretinib; first compound 0.253 µM) was 0.0885. It also gave a relative viability (KN-93 + Foretinib; first compound 2.53 µM) of 0.12, a relative viability (KN-93 + Foretinib; first compound 8 µM) of 0.124 and a relative viability (KN-93 + Bortezomib; first compound 0.08 µM) of 0.577. The relative viability (KN-93 + Bortezomib; first compound 0.253 µM) was 0.492, the relative viability (KN-93 + Bortezomib; first compound 2.53 µM) was 0.426 and the relative viability (KN-93 + Bortezomib; first compound 8 µM) was 0.243. It also gave a relative viability (KN-93 + Linsitinib; first compound 0.08 µM) of 0.905, a relative viability (KN-93 + Linsitinib; first compound 0.253 µM) of 0.907 and a relative viability (KN-93 + Linsitinib; first compound 2.53 µM) of 1.07. For the same cell line, the relative viability (KN-93 + Linsitinib; first compound 8 µM) was 0.869, the relative viability (KN-93 + Olaparib; first compound 0.08 µM) was 0.652 and the relative viability (KN-93 + Olaparib; first compound 0.253 µM) was 0.69. It also gave a relative viability (KN-93 + Olaparib; first compound 2.53 µM) of 0.652, a relative viability (KN-93 + Olaparib; first compound 8 µM) of 0.52 and a relative viability (KN-93 + Navitoclax; first compound 0.08 µM) of 0.375. It also gave a relative viability (KN-93 + Navitoclax; first compound 0.253 µM) of 0.337, a relative viability (KN-93 + Navitoclax; first compound 2.53 µM) of 0.274 and a relative viability (KN-93 + Navitoclax; first compound 8 µM) of 0.178. For the same cell line, the relative viability (KN-93 + Alpelisib; first compound 0.08 µM) was 0.821, the relative viability (KN-93 + Alpelisib; first compound 0.253 µM) was 0.889 and the relative viability (KN-93 + Alpelisib; first compound 2.53 µM) was 0.599. It also gave a relative viability (KN-93 + Alpelisib; first compound 8 µM) of 0.497, a relative viability (KN-93 + Crizotinib; first compound 2.53 µM) of 0.216 and a relative viability (KN-93 + Crizotinib; first compound 8 µM) of 0.192. For the same cell line, the relative viability (KN-93; 0.253 µM) was 1.03, the relative viability (KN-93; 2.53 µM) was 1.01 and the relative viability (KN-93; 8 µM) was 0.693.
